Eleven compounds from publication PMC7129073 (Clinical Microbiology and Infection, 2015) can be followed below.

Data set [1] relates to Pseudomonas putida clinical isolates. Nature of the data set: Agar dilution MIC. Format: cell-based. (In general: In agar dilution, organisms are placed on agar that contains the substance at set levels.)
The subject of the next data set is Nocardia spp. Nature of the data set: E-test on Mueller Hinton agar, 81 clinical isolates. Format: cell-based.
Another data set relates to Acinetobacter. Nature of the data set: Disk diffusion. In kind it is cell-based. Conditions: 37 isolates selected as resistant to beta-lactams.
Data set [2] concerns viridans group streptococci (VGS). Nature of the data set: MIC. Format: cell-based.
Data set [3] has as its system Salmonella serotype Enteritidis. Nature of the data set: Disk diffusion, food isolates Spain. Conditions: n = 96. Format: cell-based. On the technique in general: Agar diffusion results depend on both activity and mobility in agar.
Data set [4] has as its system Salmonella serotype Typhimurium. Nature of the data set: Disk diffusion, food isolates Spain. Format: cell-based. Particulars: n = 53.
For data set [5], the system named is Salmonella, other 49 serotypes. Nature of the data set: Disk diffusion, food isolates Spain. Format: cell-based. Particulars: n = 115.
The nature of data set [6]: Phase 3 trial, complicated intra-abdominal infections. Format: in vivo, human.
For the next data set, the system named is S. aureus. Nature of the data set: E-test susceptibility. Format: cell-based, Staphylococcus aureus.
A further data set relates to C. albicans. Nature of the data set: Antifungal susceptibility. In kind it is cell-based, Candida albicans.
The next data set concerns S. pneumoniae (SPN). Nature of the data set: NCCLS broth microdilution, fluoroquinolones 1999–2004. In kind it is cell-based, Streptococcus pneumoniae. Particulars: Streptococcus pneumoniae, read-out: MIC90 during the six years, 1999–2004. (In general: In broth dilution the organism is exposed to a series of concentrations in liquid medium.)
The next data set has as its system MSSA. Nature of the data set: Agar dilution MIC. In kind it is cell-based, Staphylococcus aureus. Conditions: for MIC50 / MIC90: Staphylococcus aureus, MSSA.
For another data set, the system named is MRSA. Nature of the data set: Agar dilution MIC. Format: cell-based, Staphylococcus aureus. Particulars: for MIC50 / MIC90: Staphylococcus aureus, MRSA.
Data set [7] deals with glycopeptide intermediate Staphylococcus species (GISS). Nature of the data set: VITEK II, screening plate and E test, blood isolates. In kind it is cell-based, coagulase-negative Staphylococci.
In data set [8] the test system is S. pneumoniae. Nature of the data set: PROTEKT Italy, NCCLS microdilution. In kind it is cell-based, Streptococcus pneumoniae.
Data set [9] concerns S. pneumoniae. Nature of the data set: Broth microdilution. In kind it is cell-based, Streptococcus pneumoniae. Conditions: 275 isolates.
In data set [10] the test system is Streptococcus agalactiae strains P0162 and P0425. Nature of the data set: Microdilution. Format: cell-based.
The test system of data set [11] is viridans group streptococci (VgS) and Streptococcus bovis. Nature of the data set: Broth microdilution and disk diffusion. In kind it is cell-based. Particulars: nine species.

Values after ≈ are worked out from the molar mass of the structure shown. Where two headings read alike, the source gives them in different places.

Broadly, the MIC is the least concentration at which growth counts as inhibited. A low value points to greater potency. Broadly, the MIC50 is an inhibitory concentration at the 50% level, which refers to growth in some studies and to a panel of isolates in others. A lower MIC50 goes with greater potency. The MIC90 is an inhibitory concentration at the 90% level, which refers to growth in some studies and to a panel of isolates in others.

In the case of `CN(C)c1ccc(O)c2c1C[C@H]1C[C@H]3[C@H](N(C)C)C(O)=C(C(N)=O)C(=O)[C@@]3(O)C(O)=C1C2=O` [minocycline], the MIC in data set [1] was > 16 µg/mL. In the data set with Nocardia spp. (Nocardia), this compound had an MIC50 of 1.5 µg/mL (≈ 3.28 µM) and an MIC90 of 3 µg/mL (≈ 6.56 µM). For the same compound, in the data set with Nocardia spp. (read after 48 and 72 h), the MIC range lay in the range of 0.016 to 4 µg/mL. The resistant isolates in the data set with Acinetobacter is on record as 45.9%.

In the case of `[H]/N=C(/N)N[C@H]1[C@H](O)[C@@H](O)[C@H](O[C@@H]2O[C@@H](C)[C@](O)(C=O)[C@H]2O[C@@H]2O[C@@H](CO)[C@H](O)[C@@H](O)[C@@H]2NC)[C@@H](N/C(N)=N\[H])[C@@H]1O` [streptomycin], the high-level resistance in [2] (107 strains) is reported as 10.3%. Also, the “resistance rate (NCCLS M100-S13)” value in [3] is 1%; in data set [4], 53%; in [5] it was 59%.

With imipenem/cilastatin [IMI/CIS], the “clinical cure rate at TOC, ME group” value in [6] (TGC 100 mg then 50 mg q12h iv, IMI/CIS 500/500 mg q6h, 5–14 days) is 82.4%. In addition, in data set [6] (adverse events), the nausea was found to be 24.8% and the vomiting turned out to be 19.4%. In data set [6] (same regimens), the “clinical cure rate at TOC, m-mITT cohort” value was determined as 78.2%.

On to `CC(=O)O[C@H]1C[C@@]2(C)[C@@H](C[C@@H](O)[C@H]3[C@@]4(C)CC[C@@H](O)[C@@H](C)[C@@H]4CC[C@@]32C)/C1=C(\CCC=C(C)C)C(=O)O` [fusidic acid], for which the Susceptibility in the data set with S. aureus (ICU, SRGA breakpoints, tigecycline tentative S ≤2 μg/ml) was 91%; in the data set on S. aureus (non-ICU) it was 93%.

As to `Nc1nc(=O)[nH]cc1F` [flucitozine], the “susceptibility of all tested strains” value with C. albicans is “susceptible”.

Turning to `COc1c(N2CCNC(C)C2)c(F)cc2c(=O)c(C(=O)O)cn(C3CC3)c12` (centres unmarked) [gatifloxacin], the minimum inhibitory concentration (MIC) in [1] is > 128 µg/mL. For the same compound, the results for the MIC50 (in data set [2]; with MSSA; with MRSA) were 0.25 µg/mL (≈ 0.666 µM), < 0.0625 µg/mL and < 4 µg/mL, respectively. The MIC90 in data set [2] was 0.25 µg/mL (≈ 0.666 µM); in the data set with S. pneumoniae (SPN), 0.5 µg/mL (≈ 1.33 µM); in the data set on MSSA it was < 0.125 µg/mL; against MRSA it was < 4 µg/mL. This compound also showed a resistant isolates with Acinetobacter of 83.8%. Also, the figures for the MIC range in the data set with MSSA (n = 200) and against MRSA (n = 50) were 0.0625 to 4 µg/mL (≈ 0.166 to 10.7 µM) and 4 µg/mL (≈ 10.7 µM), respectively.

For the compound `CCN[C@@H]1C[C@H](N)[C@@H](O[C@H]2OC(CN)=CC[C@H]2N)[C@H](O)[C@H]1O[C@H]1OC[C@](C)(O)[C@H](NC)[C@H]1O` [netilmicin], the “resistance rate (NCCLS M100-S13)” value worked out at 1% in data set [3], 4% in data set [4] and 0% in data set [5]. In the data set with Acinetobacter, the resistant isolates was 5.4%.

Turning to `CO[C@H]1/C=C/O[C@@]2(C)Oc3c(C)c(O)c4c(O)c(c(/C=N/N5CCN(C)CC5)c(O)c4c3C2=O)NC(=O)/C(C)=C\C=C\[C@H](C)[C@H](O)[C@@H](C)[C@@H](O)[C@@H](C)[C@H](OC(C)=O)[C@@H]1C` [rifampin], in [7] (73 GISS strains), the resistance rate is on record as 32,8%. The MIC50 against MSSA was < 0.0075 µg/mL; against MRSA it was < 32 µg/mL. The MIC90 in the data set with MSSA was < 0.0375 µg/mL; against MRSA it was < 32 µg/mL. Besides, the susceptible in the data set with S. pneumoniae [8] (year 1: 2002) is 96.7%; in the data set with S. pneumoniae [8] (year 2: 2003) it was 98.9%. The Susceptibility in the data set with S. pneumoniae [9] is 99.3%.

In the case of `C[C@H]1COc2c(C3(N)CC3)c(F)cc3c(=O)c(C(=O)O)cn1c23` [pazufloxacin], the minimal inhibitory concentration (MIC) in data set [1] was > 128 µg/mL.

Consider `C[C@@H]1CN(c2c(F)c(N)c3c(=O)c(C(=O)O)cn(C4CC4)c3c2F)C[C@H](C)N1` [sparfloxacin], for which the MIC in data set [1] was > 128 µg/mL; in data set [10] (strain P0162 (ParC Ser79Phe, GyrA Glu85Ala)), 4 µg/mL (≈ 10.2 µM); in [10] (strain P0425 (ParC Ser79Phe, GyrA Glu85Lys)), > 32 µg/mL.

In [2] (107 strains, 1990–2003), quinupristin/dalfopristin yielded an MIC50 of 0.5 µg/mL and an MIC90 of 2 µg/mL. Moreover, the “sensitivity of all GISS strains” value in data set [7] was “all GISS strains demonstrated sensitivity”. Moreover, the “% S, range between species” value in [11] is listed as 99.0 – 100.0%.
